In patent US20130252935A1, “Monobactams” (PFIZER INC., priority 2010, published 2013):
In brackets after ≈: the same amount, converted by molar mass.

What was measured:
Type in all cases: cell-based
[1] = system: Pseudomonas aeruginosa UC-12120; experiment: minimum inhibitory concentration (MIC) testing according to CLSI guidelines, Pseudomonas aeruginosa; conditions: UC-12120, wild-type, labeled as 1091-05, overnight incubation, lower of duplicate values; for MIC: Pseudomonas aeruginosa, UC12120, read-out: AB-MBT: Pseudomonas aeruginosa 1091-05: MIC (MstRcn)
Procedure, shortened: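 Broth dilution MIC per CLSI guidelines against wild-type P. aeruginosa UC-12120 (1091-05), using 2-fold drug dilutions and overnight incubation with visual reading of lowest growth-inhibiting concentration. Tested in duplicate; lower value reported when within 2-fold, with control organisms and reference compounds for quality control.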

[2] = system: Klebsiella pneumoniae 1000-02; experiment: minimum inhibitory concentration (MIC) testing according to CLSI guidelines, Klebsiella pneumoniae; conditions: ciprofloxacin-resistant, ESBL-expressing clinical isolate 1000-02, overnight incubation, lower of duplicate values; for MIC: Klebsiella pneumoniae, read-out: AB-MBT: Klebsiella pneumoniae 1000-02: MIC (MstRcnt)
Procedure, shortened: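 MIC by CLSI broth dilution with 2-fold concentration steps and overnight incubation; lowest concentration visibly inhibiting growth versus drug-free control. Ciprofloxacin-resistant, ESBL-expressing clinical isolate 1000-02. Run in duplicate, lower value reported when within 2-fold, with QC organisms and reference compounds per run.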

[3] = system: Acinetobacter baumannii/haemolyticus AB-3167; experiment: minimum inhibitory concentration (MIC) testing according to CLSI guidelines, Acinetobacter; conditions: multidrug-resistant clinical isolate AB-3167, overnight incubation, lower of duplicate values; for MIC: Acinetobacter baumannii, read-out: AB-MBT: Acinetobacter baumanii AB-3167: MIC (MstRcnt)
Procedure, shortened: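 Broth dilution MIC per CLSI M7-A8/M100-S20 against multidrug-resistant clinical isolate AB-3167, using 2-fold drug dilutions and overnight incubation; MIC is the lowest concentration without visible growth. Duplicates within 2-fold reported as the lower value, with control strains and reference compounds in range.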

| MIC [1] [µg/mL] | MIC [2] [µg/mL] | AB-MBT: Pseudomonas aeruginosa 1091-05: MIC (MstRcn) [1] [µg/mL] | AB-MBT: Klebsiella pneumoniae 1000-02: MIC (MstRcnt) [2] [µg/mL] | SMILES | MIC [3] [µg/mL] | AB-MBT: Acinetobacter baumanii AB-3167: MIC (MstRcnt) [3] [µg/mL] |
| --- | --- | --- | --- | --- | --- | --- |
| 0.25 (≈ 0.414 µM) | 1 (≈ 1.65 µM) |  |  | Nc1nc(/C(=N/OCC(=O)O)C(=O)N[C@@H]2C(=O)N(S(=O)(=O)O)[C@@H]2CNC(=O)NCc2cc(=O)c(O)cn2O)cs1 [Example 69, ({[(1Z)-1-(2-amino-1,3-thiazol-4-yl)-2-({(2R,3S)-2-[({[(1,5-dihydroxy-4-oxo-1,4-dihydropyridin-2-yl)methyl]carbamoyl}amino)methyl]-4-oxo-1-sulfoazetidin-3-yl}amino)-2-oxoethylidene]amino}oxy)acetic acid] | 0.25 (≈ 0.414 µM) |  |
| 0.25 (≈ 0.375 µM) | 1 (≈ 1.5 µM) |  |  | CC(C)(O/N=C(\C(=O)N[C@@H]1C(=O)N(S(=O)(=O)O)[C@@H]1CNC(=O)NCc1cc(=O)c(O)cn1O)c1nc(N)sc1Cl)C(=O)O [Example 29, 2-({[(1Z)-1-(2-amino-5-chloro-1,3-thiazol-4-yl)-2-({(2R,3S)-2-[({[(1,5-dihydroxy-4-oxo-1,4-dihydropyridin-2-yl)methyl]carbamoyl}amino)methyl]-4-oxo-1-sulfoazetidin-3-yl}amino)-2-oxoethylidene]amino}oxy)-2-methylpropanoic acid] | 0.5 (≈ 0.75 µM) |  |
| 0.5 | 0.06 |  |  | CC(C)(O/N=C(\C(=O)N[C@@H]1C(=O)N(S(=O)(=O)[O-])[C@@H]1CNC(=O)c1cc(=O)c(O)cn1O)c1csc(N)n1)C(=O)[O-].[Na+].[Na+] [Example 11, 2-({[(1Z)-1-(2-amino-1,3-thiazol-4-yl)-2-{[(2R,3S)-2-({[(1,5-dihydroxy-4-oxo-1,4-dihydropyridin-2-yl)carbonyl]amino}methyl)-4-oxo-1-sulfoazetidin-3-yl]amino}-2-oxoethylidene]amino}oxy)-2-methylpropanoic acid, disodium salt] | 1 |  |
| 0.06 (≈ 0.0892 µM) | 0.25 (≈ 0.372 µM) |  |  | Nc1nc(/C(=N/OC2(C(=O)O)CCC2)C(=O)N[C@@H]2C(=O)N(S(=O)(=O)O)[C@@H]2CNC(=O)C(=O)NCc2cc(=O)c(O)cn2O)cs1 [Example 65, 1-({[(1Z)-1-(2-amino-1,3-thiazol-4-yl)-2-{[(2R,3S)-2-({[{[(1,5-dihydroxy-4-oxo-1,4-dihydropyridin-2-yl)methyl]amino}(oxo)acetyl]amino}methyl)-4-oxo-1-sulfoazetidin-3-yl]amino}-2-oxoethylidene]amino}oxy)cyclobutanecarboxylic acid] | 0.125 (≈ 0.186 µM) |  |
| 0.25 (≈ 0.352 µM) | 2 (≈ 2.82 µM) |  |  | CC(C)(O/N=C(\C(=O)N[C@@H]1C(=O)N(S(=O)(=O)O)[C@@H]1CNc1ccc(C(=O)NCc2cc(=O)c(O)cn2O)cn1)c1csc(N)n1)C(=O)O [Example 46, 2-({[(1Z)-1-(2-amino-1,3-thiazol-4-yl)-2-{[(2R,3S)-2-{[(5-{[(1,5-dihydroxy-4-oxo-1,4-dihydropyridin-2-yl)methyl]carbamoyl}pyridin-2-yl)amino]methyl}-4-oxo-1-sulfoazetidin-3-yl]amino}-2-oxoethylidene]amino}oxy)-2-methylpropanoic acid] | 0.5 (≈ 0.705 µM) |  |
|  |  | 0.250 | 1.00 | CC(C)(O/N=C(\C(=O)N[C@@H]1C(=O)N(S(=O)(=O)O)[C@@H]1CNC(=O)c1ccc(S(=O)(=O)NCc2cc(=O)c(O)cn2O)cc1)c1csc(N)n1)C(=O)O [Example 39] |  | 0.500 |
| 0.125 (≈ 0.179 µM) | 0.25 (≈ 0.357 µM) |  |  | CC(C)(O/N=C(\C(=O)N[C@@H]1C(=O)N(S(=O)(=O)O)[C@@H]1CNC(=O)NCc1cc(-c2cc(=O)c(O)cn2O)no1)c1csc(N)n1)C(=O)O [Example 47, 2-({[(1Z)-1-(2-amino-1,3-thiazol-4-yl)-2-{[(2R,3S)-2-{[({[3-(1,5-dihydroxy-4-oxo-1,4-dihydropyridin-2-yl)isoxazol-5-yl]methyl}carbamoyl)amino]methyl}-4-oxo-1-sulfoazetidin-3-yl]amino}-2-oxoethylidene]amino}oxy)-2-methylpropanoic acid] | 0.25 (≈ 0.357 µM) |  |
| 0.125 (≈ 0.199 µM) | 0.25 (≈ 0.398 µM) |  |  | CC(C)(O/N=C(\C(=O)N[C@@H]1C(=O)N(S(=O)(=O)O)[C@@H]1Cn1cc(-c2cc(=O)c(O)cn2O)nn1)c1csc(N)n1)C(=O)O [Example 3, 2-({[(1Z)-1-(2-amino-1,3-thiazol-4-yl)-2-{[(2R,3S)-2-{[4-(1,5-dihydroxy-4-oxo-1,4-dihydropyridin-2-yl)-1H-1,2,3-triazol-1-yl]methyl}-4-oxo-1-sulfoazetidin-3-yl]amino}-2-oxoethylidene]amino}oxy)-2-methylpropanoic acid] | 0.5 (≈ 0.797 µM) |  |
| 0.125 (≈ 0.176 µM) | 0.5 (≈ 0.705 µM) |  |  | CC(C)(O/N=C(\C(=O)N[C@@H]1C(=O)N(S(=O)(=O)O)[C@@H]1CNc1cc(C(=O)NCc2cc(=O)c(O)cn2O)ccn1)c1csc(N)n1)C(=O)O [Example 50, 2-({[(1Z)-1-(2-amino-1,3-thiazol-4-yl)-2-{[(2R,3S)-2-{[(4-{[(1,5-dihydroxy-4-oxo-1,4-dihydropyridin-2-yl)methyl]carbamoyl}pyridin-2-yl)amino]methyl}-4-oxo-1-sulfoazetidin-3-yl]amino}-2-oxoethylidene]amino}oxy)-2-methylpropanoic acid] | 0.5 (≈ 0.705 µM) |  |
| 0.5 (≈ 0.711 µM) | 0.5 (≈ 0.711 µM) |  |  | C[C@@H](NC(=O)NCc1cc(=O)c(O)cn1O)C(=O)NC[C@@H]1[C@H](NC(=O)/C(=N\OC(C)(C)C(=O)O)c2csc(N)n2)C(=O)N1S(=O)(=O)O [Example 49, 2-({[(1Z)-1-(2-amino-1,3-thiazol-4-yl)-2-{[(2R,3S)-2-{[(N-{[(1,5-dihydroxy-4-oxo-1,4-dihydropyridin-2-yl)methyl]carbamoyl}-D-alanyl)amino]methyl}-4-oxo-1-sulfoazetidin-3-yl]amino}-2-oxoethylidene]amino}oxy)-2-methylpropanoic acid] | 0.5 (≈ 0.711 µM) |  |
